Experimental data published in US9926301B2, “Bipyrazole derivatives as JAK inhibitors” (Incyte Corporation, priority 2013, dated 2018).
Where a name gives a salt, the structure may show the parent alone.

How the values were obtained:
Type in all cases: biochemical
[1] = test system: human JAK1 (a.a. 837-1142) catalytic domain; assay: In vitro JAK kinase assay (HTRF), JAK1; conditions: ratio of IC50 values at 1 mM ATP
Procedure: (§1) The catalytic activity of JAK1, JAK2 or JAK3 was assayed by measuring the phosphorylation of a biotinylated peptide. The phosphorylated peptide was detected by homogenous time resolved fluorescence (HTRF). […] Reactions were carried out at room temperature for 1 hour and then stopped with 20 μL 45 mM EDTA, 300 nM SA-APC, 6 nM Eu-Py20 in assay buffer (Perkin Elmer, Boston, Mass.). Binding to the Europium labeled antibody took place for 40 minutes and HTRF signal was measured on a Fusion plate reader (Perkin Elmer, Boston, Mass.).

[2] = biological target: human JAK1 (a.a. 837-1142) catalytic domain (Homo sapiens, UniProt P23458); assay: In vitro JAK kinase assay (HTRF), JAK1; conditions: JAK enzyme assay at 1 mM ATP
Procedure: as §1

[3] = biological target: human JAK2 (a.a. 828-1132) catalytic domain (Homo sapiens (Human), UniProt O60674); assay: In vitro JAK kinase assay (HTRF), JAK2; conditions: JAK enzyme assay at 1 mM ATP
Chain of human JAK2 (a.a. 828-1132) catalytic domain (O60674 828-1132): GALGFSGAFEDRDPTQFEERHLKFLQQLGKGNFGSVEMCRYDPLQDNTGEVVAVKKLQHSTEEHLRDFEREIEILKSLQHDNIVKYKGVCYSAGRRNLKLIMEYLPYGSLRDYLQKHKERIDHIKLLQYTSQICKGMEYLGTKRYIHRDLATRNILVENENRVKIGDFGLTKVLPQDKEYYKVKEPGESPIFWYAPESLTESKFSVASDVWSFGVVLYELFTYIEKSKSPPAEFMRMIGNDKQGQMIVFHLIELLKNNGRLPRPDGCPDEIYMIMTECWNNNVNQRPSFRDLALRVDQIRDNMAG
Procedure: as §1

SMILES | JAK2/JAK1 [1] | IC50 [2] [µM] | IC50 [3] [µM]
Cc1[nH]ncc1-c1cnn(C2(CC#N)CN(c3cnc(C(=O)N[C@@H](C)C(F)(F)F)cn3)C2)c1 [Example 1, 5-[3-(Cyanomethyl)-3-(3′-methyl-1H,1′H-4,4′-bipyrazol-1-yl)azetidin-1-yl]-N-[(1S)-2,2,2-trifluoro-1-methylethyl]pyrazine-2-carboxamide trifluoroacetate] | >10 | < 0.3 | > 0.7
Cc1n[nH]cc1-c1cnn(C2(CC#N)CN(c3cnc(C(=O)NC(C)C)cn3)C2)c1 [Example 2, 5-[3-(Cyanomethyl)-3-(3′-methyl-1H,1′H-4,4′-bipyrazol-1-yl)azetidin-1-yl]-N-isopropylpyrazine-2-carboxamide trifluoroacetate] | >10 | < 0.3 | 0.3 to 1
Cc1n[nH]cc1-c1cnn(C2(CC#N)CN(c3ccc(C(=O)NC(C)C)cc3)C2)c1 [Example 3, 4-[3-(Cyanomethyl)-3-(3′-methyl-1H,1′H-4,4′-bipyrazol-1-yl)azetidin-1-yl]-N-isopropylbenzamide trifluoroacetate] | >10 | < 0.3 | > 1
Cc1n[nH]cc1-c1cnn(C2(CC#N)CN(c3cc(F)c(C(=O)N[C@@H](C)C(F)(F)F)cc3F)C2)c1 [Example 4, 4-[3-(Cyanomethyl)-3-(3′-methyl-1H,1′H-4,4′-bipyrazol-1-yl)azetidin-1-yl]-2,5-difluoro-N-[(1S)-2,2,2-trifluoro-1-methylethyl]benzamide trifluoroacetate] |  | < 0.3 | 
C[C@H](NC(=O)c1cc(F)c(N2CC(CC#N)(n3cc(-c4cn[nH]c4)cn3)C2)cc1F)C(F)(F)F [Example 5, 4-[3-(1H,1′H-4,4′-Bipyrazol-1-yl)-3-(cyanomethyl)azetidin-1-yl]-2,5-difluoro-N-[(1S)-2,2,2-trifluoro-1-methylethyl]benzamide trifluoroacetate] | >10 | 0.3 to 1 | > 1
Cc1n[nH]c(C)c1-c1cnn(C2(CC#N)CN(c3cnc(C(=O)N[C@@H](C)C(F)(F)F)cn3)C2)c1 [Example 9, 5-[3-(Cyanomethyl)-3-(3′,5′-dimethyl-1H,1′H-4,4′-bipyrazol-1-yl)azetidin-1-yl]-N-[(1S)-2,2,2-trifluoro-1-methylethyl]pyrazine-2-carboxamide trifluoroacetate] | >10 | < 0.3 | 0.3 to 1
CCc1n[nH]cc1-c1cnn(C2(CC#N)CN(c3cnc(C(=O)N[C@@H](C)C(F)(F)F)cn3)C2)c1 [Example 11, 5-[3-(Cyanomethyl)-3-(3′-ethyl-1H,1′H-4,4′-bipyrazol-1-yl)azetidin-1-yl]-N-[(1S)-2,2,2-trifluoro-1-methylethyl]pyrazine-2-carboxamide trifluoroacetate] |  | 0.3 to 1 | > 1
C[C@H](NC(=O)c1cc(F)c(N2CC(CC#N)(n3cc(-c4c[nH]nc4CO)cn3)C2)cc1F)C(F)(F)F [Example 12, 4-{3-(Cyanomethyl)-3-[3′-(hydroxymethyl)-1H,1′H-4,4′-bipyrazol-1-yl]azetidin-1-yl}-2,5-difluoro-N-[(1S)-2,2,2-trifluoro-1-methylethyl]benzamide trifluoroacetate] |  | 0.3 to 1 | > 1

Further lines, results first:

JAK2/JAK1 [1] | IC50 [2] [µM] | IC50 [3] [µM] | SMILES
>10 | < 0.3 | > 1 | Cc1n[nH]cc1-c1cn(C2(CC#N)CN(c3cnc(C(=O)NC(C)C)cn3)C2)nc1C [Example 6, 5-[3-(Cyanomethyl)-3-(3,3′-dimethyl-1H,1′H-4,4′-bipyrazol-1-yl)azetidin-1-yl]-N-isopropylpyrazine-2-carboxamide trifluoroacetate]
 | < 0.3 |  | Cc1n[nH]c(C)c1-c1cnn(C2(CC#N)CN(c3cnc(C(=O)NC(C)C)cn3)C2)c1 [Example 8, 5-[3-(Cyanomethyl)-3-(3′,5′-dimethyl-1H,1′H-4,4′-bipyrazol-1-yl)azetidin-1-yl]-N-isopropylpyrazine-2-carboxamide]
 | 0.3 to 1 | > 1 | Cc1nn(C2(CC#N)CN(c3cnc(C(=O)NC(C)C)cn3)C2)cc1-c1cn[nH]c1 [Example 10, 5-[3-(Cyanomethyl)-3-(3-methyl-1H,1′H-4,4′-bipyrazol-1-yl)azetidin-1-yl]-N-isopropylpyrazine-2-carboxamide trifluoroacetate]
>10 | < 0.3 | > 1 | Cc1n[nH]cc1-c1cn(C2(CC#N)CN(c3cc(F)c(C(=O)N[C@@H](C)C(F)(F)F)cc3F)C2)nc1CO [Example 13, 4-{3-(Cyanomethyl)-3-[3-(hydroxymethyl)-3′-methyl-1H,1′H-4,4′-bipyrazol-1-yl]azetidin-1-yl}-2,5-difluoro-N-[(1S)-2,2,2-trifluoro-1-methylethyl]benzamide]
